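Method: 48-hour compound exposure of cells in 96-well plates, five concentrations, linear interpolation of endpoints. GI50 is the concentration that inhibits growth by half. TGI is the concentration that stops growth completely.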
What was measured:
Assay in all cases: DTP human tumour cell line panel, 48 h
EKVX NSCLC = system: EKVX NSCLC
SK-MEL-5 melanoma = system: SK-MEL-5 melanoma
COLO 205 colon = system: COLO 205 colon
MDA-MB-435 = system: MDA-MB-435
SR leukemia = system: SR leukemia
SNB-19 CNS = system: SNB-19 CNS
OVCAR-3 ovarian = system: OVCAR-3 ovarian
MALME-3M melanoma = system: MALME-3M melanoma
HL-60(TB) leukemia = system: HL-60(TB) leukemia
RXF 393 renal = system: RXF 393 renal

Structure (SMILES): Cc1ccccc1C(=O)N/N=C/c1ccc(Sc2nccn2C)c([N+](=O)[O-])c1
- TGI (EKVX NSCLC): > 100 µM
- TGI (SK-MEL-5 melanoma): > 100 µM
- TGI (COLO 205 colon): > 100 µM
- TGI (MDA-MB-435): 81.1 µM
- TGI (SR leukemia): > 100 µM
- TGI (SNB-19 CNS): > 100 µM
- TGI (OVCAR-3 ovarian): > 100 µM
- TGI (MALME-3M melanoma): > 100 µM
- TGI (HL-60(TB) leukemia): > 100 µM
- TGI (RXF 393 renal): > 100 µM

Structure (SMILES): CN(C)CC(CC1=C(CC(CN(C)C)N(C)C)CCC1)N(C)C (stereo not given)
- TGI (EKVX NSCLC): > 100 µM
- TGI (SK-MEL-5 melanoma): > 100 µM
- TGI (COLO 205 colon): > 100 µM
- TGI (SNB-19 CNS): > 100 µM
- TGI (OVCAR-3 ovarian): > 100 µM
- TGI (MALME-3M melanoma): > 100 µM
- TGI (HL-60(TB) leukemia): > 100 µM
- TGI (RXF 393 renal): > 100 µM

Structure (SMILES): CCOC(=O)C(NC(=O)c1ccco1)(Nc1nc2ccc(OCC)cc2s1)C(F)(F)F (stereo not given)
- TGI (EKVX NSCLC): > 100 µM
- TGI (SK-MEL-5 melanoma): 47.8 µM
- TGI (COLO 205 colon): 46.4 µM
- TGI (MDA-MB-435): 80.2 µM
- TGI (SR leukemia): 88.5 µM
- TGI (SNB-19 CNS): > 100 µM
- TGI (OVCAR-3 ovarian): > 100 µM
- TGI (MALME-3M melanoma): > 100 µM
- TGI (HL-60(TB) leukemia): > 100 µM
- TGI (RXF 393 renal): 30.9 µM

Structure (SMILES): CNC(=O)OCc1c(CO)nc(SC)n1C
- TGI (EKVX NSCLC): > 100 µM
- TGI (SK-MEL-5 melanoma): > 100 µM
- TGI (COLO 205 colon): > 100 µM
- TGI (SNB-19 CNS): > 100 µM
- TGI (OVCAR-3 ovarian): > 100 µM
- TGI (MALME-3M melanoma): > 100 µM
- TGI (HL-60(TB) leukemia): > 100 µM
- TGI (RXF 393 renal): > 100 µM

Structure (SMILES): CC1=NN(c2cccc(Cl)c2)C2(SCC(=O)N2c2nc3ccccc3s2)/C1=C\c1cccs1 (stereo not given)
- TGI (EKVX NSCLC): 38.4 µM
- TGI (SK-MEL-5 melanoma): 36.7 µM
- TGI (MDA-MB-435): > 100 µM
- TGI (SR leukemia): 30.1 µM
- TGI (OVCAR-3 ovarian): 86.8 µM
- TGI (HL-60(TB) leukemia): 56 µM
- TGI (RXF 393 renal): 51.6 µM

Structure (SMILES): CCN(CC(=O)O)C(=O)c1cccnc1
- TGI (EKVX NSCLC): > 100 µM
- TGI (MDA-MB-435): > 100 µM
- TGI (SR leukemia): > 100 µM
- TGI (SNB-19 CNS): > 100 µM
- TGI (OVCAR-3 ovarian): > 100 µM
- TGI (MALME-3M melanoma): > 100 µM
- TGI (RXF 393 renal): > 100 µM

Structure (SMILES): C(=N\NC1=NCCN1)/c1ccc(-c2cn3cc(/C=N/NC4=NCCN4)ccc3n2)cc1
- TGI (EKVX NSCLC): > 92.4 µM
- TGI (SK-MEL-5 melanoma): > 100 µM
- TGI (COLO 205 colon): > 100 µM
- TGI (MDA-MB-435): > 79.7 µM
- TGI (SR leukemia): 13.5 µM
- TGI (SNB-19 CNS): > 61.8 µM
- TGI (OVCAR-3 ovarian): > 67 µM
- TGI (MALME-3M melanoma): > 100 µM
- TGI (HL-60(TB) leukemia): 19.7 µM
- TGI (RXF 393 renal): > 100 µM

Structure (SMILES): Fc1ccc(C(OCCN2CCC3CCC(C2)N3C/C=C/c2ccco2)c2ccc(F)cc2)cc1 (stereo not given)
- TGI (SK-MEL-5 melanoma): 14.4 µM
- TGI (COLO 205 colon): 13.3 µM
- TGI (MDA-MB-435): 26.5 µM
- TGI (SR leukemia): 42.7 µM
- TGI (SNB-19 CNS): 32.8 µM
- TGI (OVCAR-3 ovarian): 27.5 µM
- TGI (MALME-3M melanoma): 21.7 µM
- TGI (RXF 393 renal): 15.7 µM

Structure (SMILES): CC(=O)C1=C(C)N(c2ccc(C)cc2)C2(O)C=CC(=O)C3C(=O)N(c4ccccc4)C(=O)C132 (stereo not given)
- TGI (EKVX NSCLC): 95.5 µM
- TGI (SK-MEL-5 melanoma): 34 µM
- TGI (COLO 205 colon): > 100 µM
- TGI (MDA-MB-435): > 100 µM
- TGI (SR leukemia): 23.7 µM
- TGI (SNB-19 CNS): 65.6 µM
- TGI (OVCAR-3 ovarian): > 100 µM
- TGI (MALME-3M melanoma): 46.6 µM
- TGI (HL-60(TB) leukemia): 18.4 µM
- TGI (RXF 393 renal): 54.3 µM

Structure (SMILES): CCC(C)C1=C(OC(C)=O)[N+]2([O-])Oc3ccc(-c4c(OC(C)=O)c(OC(C)=O)c(-c5ccc(OC(C)=O)cc5)c(OC(C)=O)c4OC(C)=O)cc3OC2(C(C)CC)C(=O)N1OC(C)=O (stereo not given)
- TGI (EKVX NSCLC): 32.7 µM
- TGI (SK-MEL-5 melanoma): 23 µM
- TGI (COLO 205 colon): > 50 µM
- TGI (MDA-MB-435): > 50 µM
- TGI (SR leukemia): 30.6 µM
- TGI (SNB-19 CNS): > 50 µM
- TGI (OVCAR-3 ovarian): 29.5 µM
- TGI (MALME-3M melanoma): > 50 µM
- TGI (HL-60(TB) leukemia): 19.7 µM
- TGI (RXF 393 renal): > 50 µM

Structure (SMILES): Cc1nn(-c2ccccc2)c(C)c1/C=N/N=C1\SCC(=O)N1c1ccccc1
- TGI (EKVX NSCLC): 47.1 µM
- TGI (SK-MEL-5 melanoma): 30.3 µM
- TGI (COLO 205 colon): 39.9 µM
- TGI (MDA-MB-435): 55.3 µM
- TGI (SR leukemia): > 100 µM
- TGI (SNB-19 CNS): > 100 µM
- TGI (OVCAR-3 ovarian): 78.3 µM
- TGI (MALME-3M melanoma): 57.9 µM
- TGI (HL-60(TB) leukemia): 82.2 µM
- TGI (RXF 393 renal): 42.7 µM

Structure (SMILES): COc1ccc2c(c1)[nH]c1c(/C=C/c3ccccc3)nccc12
- TGI (EKVX NSCLC): 29.6 µM
- TGI (SK-MEL-5 melanoma): 36.6 µM
- TGI (COLO 205 colon): 19.9 µM
- TGI (MDA-MB-435): 49 µM
- TGI (SR leukemia): > 100 µM
- TGI (SNB-19 CNS): 38.5 µM
- TGI (OVCAR-3 ovarian): 36.9 µM
- TGI (MALME-3M melanoma): 31.5 µM
- TGI (HL-60(TB) leukemia): 54 µM
- TGI (RXF 393 renal): 38 µM

Structure (SMILES): NC(=O)c1c(NC(=O)c2ccccn2)sc2c1CCC(=O)C2
- GI50 (EKVX NSCLC): 5.01 µM
- TGI (EKVX NSCLC): > 100 µM
- GI50 (MDA-MB-435): 3.22 µM
- TGI (MDA-MB-435): > 100 µM
- GI50 (SR leukemia): 0.832 µM
- TGI (SR leukemia): > 100 µM
- GI50 (SNB-19 CNS): 3.45 µM
- TGI (SNB-19 CNS): > 100 µM
- GI50 (OVCAR-3 ovarian): 3.25 µM
- TGI (OVCAR-3 ovarian): 45.7 µM
- GI50 (RXF 393 renal): 3.53 µM
- TGI (RXF 393 renal): > 100 µM

Structure (SMILES): COc1ccc(C(=O)/C=C/c2cccc([N+](=O)[O-])c2)c(OC)c1
- GI50 (EKVX NSCLC): > 50 µM
- TGI (EKVX NSCLC): > 50 µM
- GI50 (SK-MEL-5 melanoma): 2.37 µM
- TGI (SK-MEL-5 melanoma): > 50 µM
- GI50 (COLO 205 colon): 6.85 µM
- TGI (COLO 205 colon): > 50 µM
- GI50 (MDA-MB-435): 1.76 µM
- TGI (MDA-MB-435): > 50 µM
- GI50 (SR leukemia): 0.678 µM
- TGI (SR leukemia): 4.02 µM
- GI50 (SNB-19 CNS): 1.46 µM
- TGI (SNB-19 CNS): 4.37 µM
- GI50 (OVCAR-3 ovarian): 1.72 µM
- TGI (OVCAR-3 ovarian): > 50 µM
- GI50 (MALME-3M melanoma): 3.56 µM
- TGI (MALME-3M melanoma): > 50 µM
- GI50 (RXF 393 renal): 1.13 µM
- TGI (RXF 393 renal): 2.36 µM

Structure (SMILES): O=C(O)C1C2CCC(O2)C1C(=O)Nc1cccc2cccnc12 (stereo not given)
- TGI (EKVX NSCLC): > 100 µM
- TGI (MDA-MB-435): > 100 µM
- TGI (SR leukemia): > 100 µM
- TGI (SNB-19 CNS): > 100 µM
- TGI (OVCAR-3 ovarian): > 100 µM
- TGI (MALME-3M melanoma): > 100 µM
- TGI (RXF 393 renal): > 100 µM

Structure (SMILES): O=C(c1cccs1)N(C(=S)OC12CC3CC(CC(C3)C1)C2)c1ccccc1
- TGI (EKVX NSCLC): 55.6 µM
- TGI (SK-MEL-5 melanoma): 55.8 µM
- TGI (COLO 205 colon): 33.8 µM
- TGI (MDA-MB-435): > 100 µM
- TGI (SR leukemia): > 100 µM
- TGI (SNB-19 CNS): > 100 µM
- TGI (OVCAR-3 ovarian): > 100 µM
- TGI (MALME-3M melanoma): > 100 µM
- TGI (HL-60(TB) leukemia): 72.5 µM
- TGI (RXF 393 renal): > 100 µM

Structure (SMILES): O=c1cccccc1[O-].O=c1cccccc1[O-].[O]=[U+2]=[O]
- TGI (EKVX NSCLC): > 100 µM
- TGI (SK-MEL-5 melanoma): > 100 µM
- TGI (COLO 205 colon): 60.8 µM
- TGI (SNB-19 CNS): 82.2 µM
- TGI (OVCAR-3 ovarian): 36.8 µM
- TGI (RXF 393 renal): 41.2 µM

Structure (SMILES): C[C@H](CCC(=O)O)[C@H]1CC[C@@]2(C)[C@@H]3C(=O)C[C@H]4C(C)(C)[C@@H](O)CC[C@]4(C)[C@H]3C(=O)C[C@]12C
- TGI (EKVX NSCLC): > 100 µM
- TGI (SK-MEL-5 melanoma): > 100 µM
- TGI (COLO 205 colon): > 100 µM
- TGI (MDA-MB-435): > 100 µM
- TGI (SR leukemia): > 100 µM
- TGI (SNB-19 CNS): > 100 µM
- TGI (OVCAR-3 ovarian): > 100 µM
- TGI (MALME-3M melanoma): > 100 µM
- TGI (HL-60(TB) leukemia): > 100 µM
- TGI (RXF 393 renal): > 100 µM

Structure (SMILES): Clc1cc2c(cc1Cl)CC(NCCN1CCCC1)CC2 (stereo not given)
- TGI (EKVX NSCLC): 38.7 µM
- TGI (SK-MEL-5 melanoma): 14.7 µM
- TGI (COLO 205 colon): 10.7 µM
- TGI (MDA-MB-435): 14.4 µM
- TGI (SR leukemia): 38 µM
- TGI (SNB-19 CNS): 46.3 µM
- TGI (OVCAR-3 ovarian): 32 µM
- TGI (MALME-3M melanoma): 22.8 µM
- TGI (HL-60(TB) leukemia): 37.6 µM

From PubChem BioAssay (NCI)
